The record followed here is patent US11427553B2, “Dihydrooxadiazinones” (Bayer Aktiengesellschaft, priority 2017, dated 2022).

In one assay the target is human full length PDE3B (Homo sapiens (Human), UniProt Q13370). Description: Assay 5 PDE3B enzyme inhibition (3H-cAMP SPA). Type of assay: biochemical. The following applies: Sf9 cell extract. Put shortly:
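Hydrolysis of tritiated cAMP by Sf9-expressed full-length human PDE3B proceeded 60 min at room temperature in Tris buffer pH 7.5 containing Mg2+, EDTA and BSA, with enzyme dilution keeping substrate consumption below 70%. IC50 derived from percent activity versus log compound concentration.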

Another assay concerns the target human full length PDE3A (Homo sapiens (Human), UniProt Q14432). Kind of assay: Assay 4 PDE3A enzyme inhibition (3H-cAMP SPA). The settings on record: Sf9 cell extract. Type of assay: biochemical. Put shortly:
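Enzyme: Sf9 extract with overexpressed full-length PDE3A; substrate [8-3H]cAMP, 0.025 μCi/well; 60 min, room temperature, Tris/HCl pH 7.5 buffer with MgCl2, EDTA, BSA.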

In another assay the test system is HeLa cells. Kind of assay: Assay 1 cell proliferation measurement (CTG, 72 h), HeLa. Type of assay: cell-based, human. The following applies: Homo sapiens, HeLa; Assay 1, 72 h, Cell Titer Glo; read-out: HeLa IC50 [nM] (Cervical cancer). An outline of the steps: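 CTG luminescence readout after 72 h compound exposure at 37 °C; 10-point 2.5-fold dilutions from 100 nM max final; DMSO 0.3% vehicle. IC50 from 4-parameter fit, normalised to 0 h plate (max inhibition) and DMSO (min inhibition).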
(ATP-based viability assays read luminescence as a measure of living cells.)

The test system of the next assay is SK-MEL-3 cells. Kind of assay: Assay 1 cell proliferation measurement (CTG, 72 h), SK-MEL-3. It counts as cell-based, human. The following applies: Homo sapiens, SK-MEL3; Assay 1, 72 h, Cell Titer Glo; read-out: SK-MEL-3 IC50 [nM] (melanoma). On the procedure:
Cell Proliferation Measurement
The antiproliferative activity of the compounds of the general formula (I) was examined in vitro in human cancer cells. For this purpose, the appropriate number of cells (Hela: 800; SK-MEL-3: 1000; A549: 800) were plated in 384-well plates with appropriate growth medium ((A549: DMEM/Ham's F12 (Biochrom; #FG 4815 with stabile Glutamine), FCS 10% final (Biochrom; #S 0415); Hela: DMEM/Ham's F12 (Biochrom; #FG 4815 with stabile Glutamine), FCS 10% final (Biochrom; #S 0415); SK-MEL-3: McCoy's 5A (Biochrom; #F 1015), FCS 10% final (Biochrom; #S 0415), L-Alanyl-L-Glutamine final: 2 mM, (Biochrom; #K 0302)) and incubated at 37° C. overnight. After 24 h, cells on one plate (0 h plate) were treated with 30 μl/cavity of CTG solution (Promega Cell Titer Glo (catalogue #G755B and G756B)) and incubated at room temperature for 10 min, and luminescence was measured by means of a VICTOR V (Perkin Elmer), in order to determine cell viability on commencement of treatment. The cells on the test plate were treated with the compounds of the general formula (I) as and incubated at 37° C. for 72 h. The compounds were added to the cells by means of an HP D300 digital dispenser in a 10-step 2.5-fold dilution series generally starting at a maximum final drug concentration of 100 nM. As control, the cells were treated with vehicle (DMSO at 0.3% final concentration). After 72 h, the cells were treated with 30 μl/cavity of CTG solution (Promega Cell Titer Glo (catalogue #G755B and G756B)) and incubated at room temperature for 10 min. and luminescence was measured by means of a VICTOR V (Perkin Elmer), in order to determine cell viability at the end of treatment. The percentage effect on cell growth and the IC50 derived therefrom were determined for each test substance using the values from the 0 h plate […] and the DMSO control […]. The IC50 values were calculated using a 4-parameter fit.

Structures are written as SMILES.

Sequence of human full length PDE3A (Q14432 whole entry): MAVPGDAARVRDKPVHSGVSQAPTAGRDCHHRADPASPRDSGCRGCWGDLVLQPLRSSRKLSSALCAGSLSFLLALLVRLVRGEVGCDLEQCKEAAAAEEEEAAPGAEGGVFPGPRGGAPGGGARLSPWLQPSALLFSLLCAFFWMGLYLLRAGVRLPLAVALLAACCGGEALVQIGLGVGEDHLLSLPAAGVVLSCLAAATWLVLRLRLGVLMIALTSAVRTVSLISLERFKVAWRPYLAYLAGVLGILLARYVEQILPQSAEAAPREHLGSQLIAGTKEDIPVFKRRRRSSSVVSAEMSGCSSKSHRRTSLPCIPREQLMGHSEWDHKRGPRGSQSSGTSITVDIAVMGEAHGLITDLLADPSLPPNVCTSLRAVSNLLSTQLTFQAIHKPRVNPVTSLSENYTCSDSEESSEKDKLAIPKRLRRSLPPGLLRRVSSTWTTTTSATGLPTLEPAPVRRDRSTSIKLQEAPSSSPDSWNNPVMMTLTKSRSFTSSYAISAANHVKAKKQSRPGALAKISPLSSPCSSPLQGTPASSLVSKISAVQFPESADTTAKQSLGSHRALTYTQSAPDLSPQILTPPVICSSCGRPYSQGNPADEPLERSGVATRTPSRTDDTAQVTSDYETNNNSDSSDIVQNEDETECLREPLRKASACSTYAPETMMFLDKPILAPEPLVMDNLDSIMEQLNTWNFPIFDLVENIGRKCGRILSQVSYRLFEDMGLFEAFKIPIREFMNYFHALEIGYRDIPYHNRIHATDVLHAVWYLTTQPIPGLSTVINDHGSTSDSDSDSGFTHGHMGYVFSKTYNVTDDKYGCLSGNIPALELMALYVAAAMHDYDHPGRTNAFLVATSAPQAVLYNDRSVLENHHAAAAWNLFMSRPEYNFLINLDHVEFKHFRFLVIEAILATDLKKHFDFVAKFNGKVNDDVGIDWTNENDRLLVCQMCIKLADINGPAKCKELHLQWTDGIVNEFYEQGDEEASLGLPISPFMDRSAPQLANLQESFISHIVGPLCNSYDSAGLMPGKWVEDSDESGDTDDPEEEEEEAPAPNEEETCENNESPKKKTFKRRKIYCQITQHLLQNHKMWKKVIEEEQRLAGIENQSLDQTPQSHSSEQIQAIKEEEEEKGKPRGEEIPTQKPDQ
Sequence of human full length PDE3B (Q13370 whole entry): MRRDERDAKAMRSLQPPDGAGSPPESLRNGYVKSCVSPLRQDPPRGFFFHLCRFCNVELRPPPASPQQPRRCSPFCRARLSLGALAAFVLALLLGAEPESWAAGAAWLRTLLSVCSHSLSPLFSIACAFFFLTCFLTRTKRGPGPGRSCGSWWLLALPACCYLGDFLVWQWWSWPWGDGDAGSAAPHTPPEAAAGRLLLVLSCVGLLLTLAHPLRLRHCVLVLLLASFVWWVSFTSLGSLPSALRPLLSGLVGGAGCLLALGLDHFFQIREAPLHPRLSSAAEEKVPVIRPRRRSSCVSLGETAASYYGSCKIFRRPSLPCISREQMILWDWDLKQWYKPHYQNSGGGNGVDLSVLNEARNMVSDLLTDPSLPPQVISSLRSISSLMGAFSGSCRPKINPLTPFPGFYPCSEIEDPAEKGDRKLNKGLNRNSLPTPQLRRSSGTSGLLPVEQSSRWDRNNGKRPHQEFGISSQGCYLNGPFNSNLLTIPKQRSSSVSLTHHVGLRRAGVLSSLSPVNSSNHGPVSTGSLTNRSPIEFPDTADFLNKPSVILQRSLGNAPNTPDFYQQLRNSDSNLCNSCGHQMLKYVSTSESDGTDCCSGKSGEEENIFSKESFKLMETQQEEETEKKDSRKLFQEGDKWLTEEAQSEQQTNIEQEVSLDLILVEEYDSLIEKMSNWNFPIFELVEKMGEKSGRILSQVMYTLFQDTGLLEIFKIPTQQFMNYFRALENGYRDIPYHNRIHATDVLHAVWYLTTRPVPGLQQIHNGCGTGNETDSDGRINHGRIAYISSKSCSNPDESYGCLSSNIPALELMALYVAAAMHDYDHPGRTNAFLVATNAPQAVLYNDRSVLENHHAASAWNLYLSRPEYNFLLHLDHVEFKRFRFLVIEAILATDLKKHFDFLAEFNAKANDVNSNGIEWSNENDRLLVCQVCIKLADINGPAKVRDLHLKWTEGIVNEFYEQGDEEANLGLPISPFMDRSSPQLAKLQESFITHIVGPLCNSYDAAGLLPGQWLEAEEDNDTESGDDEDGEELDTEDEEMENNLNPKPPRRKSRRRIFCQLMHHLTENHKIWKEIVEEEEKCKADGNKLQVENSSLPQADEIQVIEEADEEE

A word on the IC50: it is the midpoint of a concentration-inhibition curve. Turning to `Cc1cc(C2=NNC(=O)OC2)ccc1-c1ccc(=O)[nH]c1` [Example 12, 5-[3-Methyl-4-(6-oxo-1,6-dihydropyridin-3-yl)phenyl]-3,6-dihydro-2H-1,3,4-oxadiazin-2-one], the IC50 is 30 nM at human full length PDE3B, 31 nM against human full length PDE3A, 20 nM in the assay on HeLa cells and 58 nM in the assay with SK-MEL-3 cells.
In the same order, the values of `Cc1cc(C2=NNC(=O)OC2)ccc1-c1cncnc1` [Example 14, 5-[3-Methyl-4-(pyrimidin-5-yl)phenyl]-3,6-dihydro-2H-1,3,4-oxadiazin-2-one] are 71 nM, 63 nM, 49 nM and 64 nM.
Take `Cc1cc(C2=NNC(=O)OC2)ccc1-c1cccc(F)c1` [Example 15, 5-(3′-Fluoro-2-methylbiphenyl-4-yl)-3,6-dihydro-2H-1,3,4-oxadiazin-2-one]: the IC50 against human full length PDE3B was determined as 110 nM; on human full length PDE3A, 110 nM; in the assay with HeLa cells, 8 nM; in the assay on SK-MEL-3 cells, 16 nM.
Take `CC1CN(c2c(F)cc(C3=NNC(=O)OC3C)cc2F)CCO1` (stereo not drawn) [Example 18, 5-{3,5-Difluoro-4-[2-methylmorpholin-4-yl]phenyl}-6-methyl-3,6-dihydro-2H-1,3,4-oxadiazin-2-one]: the IC50 came to 220 nM against human full length PDE3B, 450 nM against human full length PDE3A, 18 nM with HeLa cells and 74 nM in the assay with SK-MEL-3 cells.
For `O=C1NN=C(c2cc(F)c(N3CCOCC3)c(F)c2)CO1` [Example 21, 5-[3,5-Difluoro-4-(morpholin-4-yl)phenyl]-3,6-dihydro-2H-1,3,4-oxadiazin-2-one], the 50% inhibitory concentration (IC50) was 185 nM against human full length PDE3B, 175 nM against human full length PDE3A, 15 nM in the assay with HeLa cells and over 67 nM in the assay with SK-MEL-3 cells.
For `N#Cc1cc(C2=NNC(=O)OC2)ccc1N1CCOCC1` [Example 22, 2-(Morpholin-4-yl)-5-(2-oxo-3,6-dihydro-2H-1,3,4-oxadiazin-5-yl)benzonitrile], the IC50 was 33 nM on human full length PDE3B, 52 nM at human full length PDE3A, 26 nM in the assay on HeLa cells and 51 nM in the assay on SK-MEL-3 cells.
For the molecule `N#Cc1cc(C2=NNC(=O)OC2)cc(Cl)c1N1CCOCC1` [Example 23, 3-Chloro-2-(morpholin-4-yl)-5-(2-oxo-3,6-dihydro-2H-1,3,4-oxadiazin-5-yl)benzonitrile], the IC50 on human full length PDE3B was 270 nM; against human full length PDE3A, 380 nM; in the assay on HeLa cells, 45 nM; with SK-MEL-3 cells it was over 100 nM.
In the same order, the values of `CC1CN(c2ccc(C3=NNC(=O)OC3)cc2F)CC(C)O1` (stereo not drawn) [Example 24, 5-{4-[2,6-Dimethylmorpholin-4-yl]-3-fluorophenyl}-3,6-dihydro-2H-1,3,4-oxadiazin-2-one] are 110 nM, 180 nM, 55 nM and over 100 nM.
On the same counts, the results for `C[C@@H]1OC(=O)NN=C1c1ccc(N2CCOCC2)c(F)c1` [Example 25-1, (6S)-5-(3-Fluoro-4-morpholinophenyl)-6-methyl-3,6-dihydro-2H-1,3,4-oxadiazin-2-one] are 22 nM, 44 nM, 2 nM and 3 nM.
In the same order, the values of `C[C@@H]1OC(=O)NN=C1c1cc(F)c(N2CCOCC2)c(F)c1` [Example 25-2, (6S)-5-(3,5-Difluoro-4-morpholinophenyl)-6-methyl-3,6-dihydro-2H-1,3,4-oxadiazin-2-one] are 15 nM, 17 nM, 3 nM and 5 nM.
Take `O=C1NN=C(c2ccc(N3CCC(F)(F)C3)c(F)c2)CO1` [Example 26, 5-[4-(3,3-Difluoropyrrolidin-1-yl)-3-fluorophenyl]-3,6-dihydro-2H-1,3,4-oxadiazin-2-one]: the IC50 came to 270 nM against human full length PDE3B, 700 nM against human full length PDE3A, 9 nM with HeLa cells and 29 nM in the assay with SK-MEL-3 cells.
On to `Cc1cc(C2=NNC(=O)OC2)ccc1-c1ccccc1` [Example 27, 5-(2-Methylbiphenyl-4-yl)-3,6-dihydro-2H-1,3,4-oxadiazin-2-one], for which the IC50 at human full length PDE3B amounted to 110 nM; at human full length PDE3A, 75 nM; with HeLa cells it was 2 nM; in the assay on SK-MEL-3 cells, 6 nM.
On to `Cc1ncc(-c2ccc(C3=NNC(=O)OC3)cc2C)cn1` [Example 28, 5-[3-Methyl-4-(2-methylpyrimidin-5-yl)phenyl]-3,6-dihydro-2H-1,3,4-oxadiazin-2-one], for which the IC50 was 40 nM on human full length PDE3B, 31 nM against human full length PDE3A, 14 nM in the assay on HeLa cells and 28 nM in the assay on SK-MEL-3 cells.
As for `Cc1cc(C2=NNC(=O)OC2)ccc1-c1ccnn1C` [Example 29, 5-[3-Methyl-4-(1-methyl-1H-pyrazol-5-yl)phenyl]-3,6-dihydro-2H-1,3,4-oxadiazin-2-one], the IC50 against human full length PDE3B was 160 nM; against human full length PDE3A, 300 nM; in the assay on HeLa cells it was 46 nM; in the assay on SK-MEL-3 cells it was over 100 nM.
In the case of `O=C1NN=C(c2ccc(-c3ccc(F)cc3)c(F)c2)CO1` [Example 30, 5-(2,4′-Difluorobiphenyl-4-yl)-3,6-dihydro-2H-1,3,4-oxadiazin-2-one], the IC50 against human full length PDE3B is 79 nM; on human full length PDE3A, 99 nM; with HeLa cells it was 1 nM; in the assay on SK-MEL-3 cells, 4 nM.
As for `Cc1ccc(-c2ccc(C3=NNC(=O)OC3)cc2C(F)(F)F)cn1` [Example 32, 5-[4-(6-Methylpyridin-3-yl)-3-(trifluoromethyl)phenyl]-3,6-dihydro-2H-1,3,4-oxadiazin-2-one], the IC50 against human full length PDE3B was 110 nM; on human full length PDE3A, 67 nM; with HeLa cells, 5 nM; in the assay on SK-MEL-3 cells it was 7 nM.
Consider `O=C1NN=C(c2ccc(-c3cccnc3)c(C(F)(F)F)c2)CO1` [Example 33, 5-[4-(Pyridin-3-yl)-3-(trifluoromethyl)phenyl]-3,6-dihydro-2H-1,3,4-oxadiazin-2-one], for which the IC50 on human full length PDE3B is 80 nM; on human full length PDE3A it was 65 nM; in the assay with HeLa cells it was 6 nM; with SK-MEL-3 cells, 10 nM.
In the same order, the values of `Nc1ccc(-c2ccc(C3=NNC(=O)OC3)cc2C(F)(F)F)cc1` [Example 34, 5-[4′-Amino-2-(trifluoromethyl)biphenyl-4-yl]-3,6-dihydro-2H-1,3,4-oxadiazin-2-one] are 100 nM, 100 nM, 3 nM and 765 nM.
In the case of `Cc1ccc(-c2ccc(C3=NNC(=O)OC3)cc2C(F)(F)F)cc1O` [Example 35, 5-[3′-Hydroxy-4′-methyl-2-(trifluoromethyl)biphenyl-4-yl]-3,6-dihydro-2H-1,3,4-oxadiazin-2-one], the half-inhibitory concentration (IC50) on human full length PDE3B is 75 nM; on human full length PDE3A it was 79 nM; with HeLa cells, 39 nM; in the assay with SK-MEL-3 cells, 25 nM.
With `O=C1NN=C(c2ccc(-c3ccc(C(F)(F)F)nc3)c(C(F)(F)F)c2)CO1` [Example 36, 5-{3-(Trifluoromethyl)-4-[6-(trifluoromethyl)pyridin-3-yl]phenyl}-3,6-dihydro-2H-1,3,4-oxadiazin-2-one], the IC50 on human full length PDE3B is 320 nM; on human full length PDE3A it was 280 nM; in the assay with HeLa cells, 23 nM; in the assay with SK-MEL-3 cells it was 39 nM.
As to `O=C1NN=C(c2ccc(-c3ccc(F)c(O)c3)c(C(F)(F)F)c2)CO1` [Example 37, 5-[4′-Fluoro-3′-hydroxy-2-(trifluoromethyl)biphenyl-4-yl]-3,6-dihydro-2H-1,3,4-oxadiazin-2-one], the IC50 against human full length PDE3B was 130 nM; against human full length PDE3A, 150 nM; in the assay with HeLa cells it was 37 nM; in the assay on SK-MEL-3 cells, 12 nM.
